Experimental data from US20150050734A1, “Carbon Nanotubes And Methods Of Use” (DUKE UNIVERSITY, priority 2012, published 2015).
“Also recorded” adds a separate entry of the source.

Tests used:
primary cortical neurons = test: Clomeleon-based ratiometric chloride imaging; type: cell-based, rat; details: for effect on neuronal [Cl−]i: KN93 1 μM
Method: The preparation of primary cortical neurons was adapted from a previous protocol. […] Briefly, cortices were microdissected from embryonic rats (E18) or mice (E16.5).
The tissue was dissociated using papain, followed by mechanical dissociation. Cytosine arabinoside (2.5 μM) was added to cultures to inhibit the proliferation of non-neuronal cells. Cell suspension was plated at a density of 10^6 cells mL^−1 onto tissue-culture dishes. 12 mm-diameter matrix-covered glass coverslips were contained in tissue culture dishes, typically n=3.

KCC2 = KCC2 immunocytochemistry / densitometry in cultured neurons; type: cell-based, rat; details: KN93 1 μM
Method: Confocal fluorescence imaging was conducted after immunolabeling for β3-tubulin (mouse monoclonal antibody; 1:200, Iowa hybridoma bank, Iowa City, United States), and KCC2 (rabbit polyclonal antibody; Abcam; 1:200). Id.. Fluorescently labeled sections were visualized in a Zeiss LSM710 (Carl Zeiss AG, Oberkochen, Germany) confocal imaging suite with lasers tuned to the […] spectra of the secondary fluorescent antibodies (coupled to Alexa-488 and Alexa-595 dyes), as described previously. Li, J. et al. (2011) Environ Health Perspect 119:784-793.
Morphometry for confocal and light-microscopy acquired images was conducted as previously described. Yeo, M. et al. (2009) J. Neurosci 29:14652-14662.

Row | SMILES | effect on neuronal [Cl−]i (primary cortical neurons; Au-cultured neurons) | effect on neuronal [Cl−]i (primary cortical neurons; fwCNT-cultured neurons) | effect on KCC2 expression (KCC2; Au-cultured neurons) | effect on KCC2 upregulation (KCC2; fwCNT-cultured neurons) | effect on acceleration of the chloride shift and upregulation of KCC2 (primary cortical neurons; KN62 1 μM, fwCNT-cultured primary neurons)
1 | COc1ccc(S(=O)(=O)N(CCO)c2ccccc2CN(C)C/C=C/c2ccc(Cl)cc2)cc1 [KN93] | also not on Au-cultured neurons | specific and powerful effect | modest reduction; also recorded: relative lack effect | strict dependence | 
2 | CN([C@@H](Cc1ccc(OS(=O)(=O)c2cccc3cnccc23)cc1)C(=O)N1CCN(c2ccccc2)CC1)S(=O)(=O)c1cccc2cnccc12 [KN62] |  |  |  |  | Dependence of acceleration of the chloride shift and upregulation of KCC2
